In one test the test system is prostate. In words: Prostate weight evaluation at slaughter (100 days), treatment effect. The class given is in vivo, Copenhagen rats. As to conditions: mean prostate weight vs placebo at slaughter (100 days); healthy adult rats, 750 μg total peptide.
The subject of another test is native GnRH peptide. The class given is in vivo, Copenhagen rats. As to conditions: for anti-GnRH antibodies titers: 750 μg total peptide, fortnightly s.c.
A further test relates to testicles. In words: Testicles weight evaluation at slaughter (100 days), treatment effect. Type of test: in vivo, Copenhagen rats. As to conditions: mean testicles weight vs placebo at slaughter (100 days); healthy adult rats, 750 μg total peptide.
A further test has as its system testosterone. Kind of test: Testosterone levels determination / testosterone ablation after immunization. Type of test: in vivo. The settings on record: oily adjuvant (Montanide type); 2 immunizations in prepuberous animals, 3 or 4 immunizations in adult animals.

Several values for one entry are separate records, joined by “and”; a condition that tells them apart may be missing. Equal entries are not always repeated. Where two headings read alike, the source gives them in different places.

With “IPGVAYTSPEVAWVGGGGQHWSYPLRP (GnRHm1 bonded at its amino-terminal end to the peptide P48 of the protein P64K of Neisseria meningitidis) [P48-P64K-GnRHm1]”, in the test with prostate, the “Effect on Prostate (Etreatment=1−(Ptreatment/Pplacebo))” value amounted to 0.28. Also, in the test on native GnRH peptide (after the first immunization, s.c., Montanide adjuvant), the “seroconversion (anti-GnRH)” value is 100% and 90%. For the same sequence, in the test on testicles, the “Effect on Testicles (Etreatment=1−(Ptreatment/Pplacebo))” value turned out to be 0.49.
For “QHWSYPLRPGGGQYIKANSKFIGITEL (Chemical synthesis of the peptide.GnRHm1Tox.) [GnRHm1-TT]”, in the test with testosterone, the testosterone ablation entry is on record as “potent effect”. The “Effect on Prostate (Etreatment=1−(Ptreatment/Pplacebo))” value with prostate is recorded as 0.41. Also, the “seroconversion (anti-GnRH)” value in the test with native GnRH peptide (after the fourth immunization, oily adjuvant (Montanide type)) was found to be 90%; in the test on native GnRH peptide (after the third immunization, s.c., Montanide adjuvant), 90%. Also, the “anti-GnRH response relative to TT-GnRHm1 variant” value in the test on native GnRH peptide (doses equal to the TT-GnRHm1 variant) is listed as 10 times weaker. In the test on native GnRH peptide (over the whole experiment (5 immunizations, 100 days)), the “highest anti-GnRH antibodies titers reached” value is reported as 1/1000. In addition, the “Effect on Testicles (Etreatment=1−(Ptreatment/Pplacebo))” value with testicles is 0.43.
Regarding “QYIKANSKFIGITELGGQ HWSYPLRPG (QYIKANSKFIGITELGGQHWSYPLRPG; GnRHm1 bonded at its amino-terminal end to epitope 830-844 of the tetanus toxoid) [TT-GnRHm1]”, the “Effect on Prostate (Etreatment=1−(Ptreatment/Pplacebo))” value in the test with prostate stood at 0.42. Moreover, the anti-GnRH antibodies titers is 1/6000 with native GnRH peptide (after 75 days of the beginning of experiment) and 1/12000 in the test with native GnRH peptide (after 100 days / at the end of the experiment). Also, the “Effect on Testicles (Etreatment=1−(Ptreatment/Pplacebo))” value in the test with testicles amounted to 0.55.

(Values after patent publication US8999931B2, “Pharmaceutical composition using gonadotropin-releasing hormone (GNRH) combined variants as immunogen” (Centro de Ingenieria Genetica y Biotecnologia, priority 2008, dated 2015).)
